Structures can show the parent of a compound that is named as a salt.
What was measured:
HCT116 [1] = settings: 72 h
Procedure: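 HCT116 control and MTA1-KO (CRISPR) HCT116 cells were seeded in 384-well plates (800 cells/well), treated 16 h later with 237 metabolism-related anticancer drugs at five doses (10 uM, 2 uM, 400 nM, 80 nM, 16 nM) for 72 h, two replicates; viability by CCK8. Values are % inhibition of viability relative to untreated cells, plus fitted IC50.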

HCT116 [2] = experiment: viability inhibition vs untreated; higher = more cytotoxic; settings: 72 h

| Structure (SMILES) | IC50 (HCT116 [1]; genotype: MTA1-KO) | IC50 (HCT116 [1]; genotype: control) | viability inhibition (HCT116 [2]; genotype: MTA1-KO, 16 nM) | viability inhibition (HCT116 [2]; genotype: MTA1-KO, 80 nM) | viability inhibition (HCT116 [2]; genotype: MTA1-KO, 400 nM) | viability inhibition (HCT116 [2]; genotype: MTA1-KO, 2000 nM) | viability inhibition (HCT116 [2]; genotype: MTA1-KO, 10000 nM) | viability inhibition (HCT116 [2]; genotype: control, 16 nM) | viability inhibition (HCT116 [2]; genotype: control, 80 nM) | viability inhibition (HCT116 [2]; genotype: control, 400 nM) | viability inhibition (HCT116 [2]; genotype: control, 2000 nM) | viability inhibition (HCT116 [2]; genotype: control, 10000 nM) |
| --- | --- | --- | --- | --- | --- | --- | --- | --- | --- | --- | --- | --- |
| O=C(C[C@H]1NCCC[C@@H]1O)Cn1cnc2cc(Br)c(Cl)cc2c1=O [Halofuginone hydrobromide] | 0.374 µM | 0.371 µM | 2.99% | -4.56% | 73.6% | 106% | 103% | -19.5% | -8.31% | 72.1% | 111% | 101% |
| NS(=O)(=O)c1cc2c(cc1Cl)NCNS2(=O)=O [Hydrochlorothiazide] | > 10 µM | > 10 µM | -4.21% | -3.92% | -3.75% | -5.89% | -2.82% | 18.6% | 15.8% | 14.2% | -4.67% | 13.5% |
| CCCC(=O)O[C@]1(C(=O)CO)CC[C@H]2[C@@H]3CCC4=CC(=O)CC[C@]4(C)[C@H]3[C@@H](O)C[C@@]21C [Hydrocortisone butyrate] | > 10 µM | > 10 µM | -3.78% | -0.209% | -6.9% | -15.3% | 17.3% | -10.8% | -15% | -3.07% | -16.7% | 41.3% |
| CC(C)n1nc(-c2ccc3oc(N)nc3c2)c2c(N)ncnc21 [INK 128] | 1.04 µM | < 0.016 µM | -1.98% | 6.98% | 33.7% | 44.4% | 70% | 52.9% | 40.8% | 50.1% | 52.3% | 76.6% |
| O=C(O)CNC(=O)c1c(O)c2ccccc2n(Cc2ccccc2)c1=O [IOX 2] | > 10 µM | > 10 µM | 15.5% | -17.5% | -20.5% | -22% | 9.66% | -6.02% | 3.87% | -7.43% | -4.74% | -0.498% |
| NS(=O)(=O)c1ccc(S(=O)(=O)Nc2cccc3c(Cl)c[nH]c23)cc1 [Indisulam] | 0.129 µM | 0.445 µM | -0.89% | 30.5% | 59.8% | 90.3% | 96.6% | -5.81% | -7.51% | 10.8% | 90.9% | 90.2% |
| Cn1cc(C[C@@H](N)C(=O)O)c2ccccc21 [Indoximod] | > 10 µM | > 10 µM | -22.6% | -22% | -24.2% | -19% | 3.49% | -15.9% | -19.5% | -14.6% | -4.79% | 3.27% |
| NNC(=O)c1ccncc1 [Isoniazid] | > 10 µM | > 10 µM | -5.84% | -18.3% | -14.4% | -18.3% | -0.042% | -10.3% | -11.9% | -11.5% | 1.11% | 38% |
| CC(C)CC(N)=O [Isovaleramide] | > 10 µM | > 10 µM | -15.6% | -17.2% | -11.3% | -17.2% | -13% | -6.22% | -6.16% | -2.21% | -1.96% | -10.4% |
| N#Cc1ccnc(N2C(=O)CC[C@H]2C(=O)N(c2cncc(F)c2)[C@H](C(=O)NC2CC(F)(F)C2)c2ccccc2Cl)c1 [Ivosidenib] | 5.82 µM | > 10 µM | 3.53% | -8.17% | -0.782% | 12.7% | 61.7% | -4.33% | -18.7% | -4.67% | -16.1% | -2.68% |
| O=C(Oc1ccc([N+](=O)[O-])cc1)N1CCC(C(O)(c2ccc3c(c2)OCO3)c2ccc3c(c2)OCO3)CC1 [JZL184] | 5.53 µM | > 10 µM | 6.97% | 15.2% | 21.9% | 37.7% | 62.3% | 9.18% | -4.77% | -6.67% | -12.4% | 2.68% |
| O=S(=O)(NCCSSCCNS(=O)(=O)c1cc(Cl)ccc1Cl)c1cc(Cl)ccc1Cl [KC7F2] | > 10 µM | > 10 µM | 3.77% | 14.6% | 13.5% | 9.73% | 16.2% | 25.3% | 14.3% | 11.1% | 9.06% | 24.4% |
| Nc1ccc(/C=C/C(=O)NCc2cc3cc(-c4ccc(C(=O)N5CCC(F)(F)CC5)cc4)cc(-c4ccc(F)cc4)c3o2)cn1 [KPT9274] | > 10 µM | > 10 µM | -17.2% | -10% | -24% | -17.1% | 8.44% | 15.8% | -9.31% | 7.28% | 14.9% | 13.4% |
| O=c1c(O)c(-c2ccc(O)cc2)oc2cc(O)cc(O)c12 [Kaempferol] | > 10 µM | > 10 µM | 9.79% | 3.08% | 3.45% | 10.9% | 39% | 7.5% | 18.7% | -0.112% | 8.84% | 23.1% |
